According to US10351575B2, “Bicyclic urea, thiourea, guanidine and cyanoguanidine compounds useful for the treatment of pain” (Array BioPharma Inc., priority 2012, dated 2019):

How the values were obtained:
[1] = molecular target: His-tagged recombinant human TrkA (Homo sapiens (Human), UniProt P04629); experiment: TrkA LanthaScreen Eu Kinase Binding Assay; conditions: averaged IC50; TR-FRET binding, 60 min, 22° C.; read-out: TrkA Enzyme IC50
Summary of the method: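 Three-fold compound dilutions (2% DMSO final) were incubated 60 min at 22° C. with 5 nM His-TrkA cytoplasmic domain, tracer 236 (4 nM), biotinylated anti-His (2 nM) and europium streptavidin (2 nM) in MOPS pH 7.5 buffer. Emission ratio 665/615 gave percent of control; four-parameter fit yielded IC50.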

Yes = Yes (Homo sapiens (Human), UniProt P07947); experiment: KinaseProfiler off-target kinase profiling; format: biochemical; conditions: 10 μM, ATP near Km
Method: (§1) Representative compounds (Examples 12, 32, 26 and 2) of the invention were tested for off-target kinase activity at a concentration of 10 μM by Millipore, Inc. in their KinaseProfiler™ service against all the kinases available in their full kinase panel. Compounds were run in duplicate at a concentration of ATP near the Km for each individual kinase according to Millipore's specifications. The results are shown in Table B. Data are reported as percent of control (POC) and are the average of the two replicates.

FAK2 = FAK2 (Homo sapiens (Human), UniProt Q14289); experiment: KinaseProfiler off-target kinase profiling; format: biochemical; conditions: 10 μM, ATP near Km
Sequence of FAK2 (Q14289 whole entry): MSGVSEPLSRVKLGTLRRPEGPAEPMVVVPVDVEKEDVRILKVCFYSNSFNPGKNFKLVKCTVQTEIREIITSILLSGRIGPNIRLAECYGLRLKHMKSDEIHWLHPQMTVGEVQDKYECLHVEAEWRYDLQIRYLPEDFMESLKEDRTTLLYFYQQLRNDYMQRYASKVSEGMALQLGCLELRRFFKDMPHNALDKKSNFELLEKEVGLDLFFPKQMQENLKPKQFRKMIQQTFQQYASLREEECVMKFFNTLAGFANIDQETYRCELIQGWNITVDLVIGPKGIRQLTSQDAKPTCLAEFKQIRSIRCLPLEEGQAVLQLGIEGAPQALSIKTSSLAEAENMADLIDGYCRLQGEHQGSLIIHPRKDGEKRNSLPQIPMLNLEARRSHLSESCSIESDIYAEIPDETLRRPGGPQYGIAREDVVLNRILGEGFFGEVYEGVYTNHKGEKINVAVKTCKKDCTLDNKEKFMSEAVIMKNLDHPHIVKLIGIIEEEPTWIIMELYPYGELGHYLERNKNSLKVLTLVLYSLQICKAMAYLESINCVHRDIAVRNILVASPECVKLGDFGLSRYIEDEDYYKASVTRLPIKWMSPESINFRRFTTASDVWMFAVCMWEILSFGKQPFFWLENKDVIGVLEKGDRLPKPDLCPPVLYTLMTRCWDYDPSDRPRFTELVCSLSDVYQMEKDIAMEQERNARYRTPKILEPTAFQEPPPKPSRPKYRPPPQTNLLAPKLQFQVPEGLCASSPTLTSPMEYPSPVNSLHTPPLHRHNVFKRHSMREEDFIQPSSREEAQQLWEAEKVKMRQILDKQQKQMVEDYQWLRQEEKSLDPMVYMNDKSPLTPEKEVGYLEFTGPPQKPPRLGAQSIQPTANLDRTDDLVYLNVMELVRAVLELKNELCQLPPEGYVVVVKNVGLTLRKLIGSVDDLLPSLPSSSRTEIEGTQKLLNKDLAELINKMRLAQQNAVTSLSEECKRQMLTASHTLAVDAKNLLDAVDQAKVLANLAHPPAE
Method: as §1

SRC = SRC (Homo sapiens (Human), UniProt P12931); experiment: KinaseProfiler off-target kinase profiling; format: biochemical; conditions: 10 μM, ATP near Km
Method: as §1

p38alpha = p38alpha (Homo sapiens (Human), UniProt Q16539); experiment: KinaseProfiler off-target kinase profiling; format: biochemical; conditions: 10 μM, ATP near Km
Method: as §1

MKK7beta = MKK7beta (Homo sapiens (Human), UniProt O14733); experiment: KinaseProfiler off-target kinase profiling; format: biochemical; conditions: 10 μM, ATP near Km
Sequence of MKK7beta (O14733 whole entry, change not shown): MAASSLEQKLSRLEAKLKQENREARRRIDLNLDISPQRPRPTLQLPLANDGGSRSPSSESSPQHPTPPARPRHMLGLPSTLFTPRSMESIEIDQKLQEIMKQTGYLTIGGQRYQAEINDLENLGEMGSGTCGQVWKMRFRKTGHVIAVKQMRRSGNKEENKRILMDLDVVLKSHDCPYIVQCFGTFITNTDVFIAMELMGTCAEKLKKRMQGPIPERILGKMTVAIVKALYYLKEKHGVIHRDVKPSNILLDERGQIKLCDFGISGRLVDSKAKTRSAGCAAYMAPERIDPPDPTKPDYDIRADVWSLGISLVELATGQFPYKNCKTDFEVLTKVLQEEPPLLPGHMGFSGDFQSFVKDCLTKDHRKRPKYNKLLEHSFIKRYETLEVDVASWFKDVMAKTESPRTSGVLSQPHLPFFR
Method: as §1

Lyn = Lyn (Homo sapiens (Human), UniProt P07948); experiment: KinaseProfiler off-target kinase profiling; format: biochemical; conditions: 10 μM, ATP near Km
Method: as §1

c-RAF = c-RAF (Homo sapiens (Human), UniProt P04049, Y340D/Y341D); experiment: KinaseProfiler off-target kinase profiling; format: biochemical; conditions: 10 μM, ATP near Km
Method: as §1

mTOR = mTOR (Homo sapiens (Human), UniProt P42345); experiment: KinaseProfiler off-target kinase profiling; format: biochemical; conditions: 10 μM, ATP near Km
Method: as §1

ALK4 = ALK4 (Homo sapiens (Human), UniProt P36896); experiment: KinaseProfiler off-target kinase profiling; format: biochemical; conditions: 10 μM, ATP near Km
Sequence of ALK4 (P36896 24-505): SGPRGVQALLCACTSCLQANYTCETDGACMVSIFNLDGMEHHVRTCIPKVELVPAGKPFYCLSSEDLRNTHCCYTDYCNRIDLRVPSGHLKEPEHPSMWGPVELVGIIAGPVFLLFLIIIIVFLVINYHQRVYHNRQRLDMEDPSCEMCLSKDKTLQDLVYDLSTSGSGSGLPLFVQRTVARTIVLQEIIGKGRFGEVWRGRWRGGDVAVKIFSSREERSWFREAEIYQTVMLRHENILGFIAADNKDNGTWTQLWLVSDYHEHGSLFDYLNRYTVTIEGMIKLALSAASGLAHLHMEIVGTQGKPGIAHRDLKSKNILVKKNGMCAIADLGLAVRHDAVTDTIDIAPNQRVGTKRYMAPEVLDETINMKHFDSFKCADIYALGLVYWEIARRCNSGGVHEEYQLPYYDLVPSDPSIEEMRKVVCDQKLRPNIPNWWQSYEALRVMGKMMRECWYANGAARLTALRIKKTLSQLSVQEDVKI
Method: as §1

TAO2 = TAO2 (Homo sapiens (Human), UniProt Q9UL54); experiment: KinaseProfiler off-target kinase profiling; format: biochemical; conditions: 10 μM, ATP near Km
Method: as §1

NEK6 = NEK6 (Homo sapiens (Human), UniProt Q9HC98); experiment: KinaseProfiler off-target kinase profiling; format: biochemical; conditions: 10 μM, ATP near Km
Method: as §1

PRK2 = PRK2 (Homo sapiens (Human), UniProt Q16513); experiment: KinaseProfiler off-target kinase profiling; format: biochemical; conditions: 10 μM, ATP near Km
Method: as §1

CAMK4 = CAMK4 (Homo sapiens (Human), UniProt Q16566); experiment: KinaseProfiler off-target kinase profiling; format: biochemical; conditions: 10 μM, ATP near Km
Method: as §1

ULK3 = ULK3 (Homo sapiens (Human), UniProt Q6PHR2); experiment: KinaseProfiler off-target kinase profiling; format: biochemical; conditions: 10 μM, ATP near Km
Sequence of ULK3 (Q6PHR2 whole entry): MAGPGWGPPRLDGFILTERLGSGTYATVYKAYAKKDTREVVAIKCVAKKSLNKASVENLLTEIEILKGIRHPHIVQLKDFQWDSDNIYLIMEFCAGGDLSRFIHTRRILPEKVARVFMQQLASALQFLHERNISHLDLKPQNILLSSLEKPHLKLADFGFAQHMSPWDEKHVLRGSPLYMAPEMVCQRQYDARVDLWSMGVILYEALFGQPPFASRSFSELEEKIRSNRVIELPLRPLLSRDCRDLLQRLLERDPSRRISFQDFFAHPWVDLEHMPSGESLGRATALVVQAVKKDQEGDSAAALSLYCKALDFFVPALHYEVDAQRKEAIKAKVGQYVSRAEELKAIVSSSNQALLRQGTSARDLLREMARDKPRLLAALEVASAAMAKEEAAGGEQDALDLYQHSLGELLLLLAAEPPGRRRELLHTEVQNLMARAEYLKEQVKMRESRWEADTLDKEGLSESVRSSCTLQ
Method: as §1

CLK3 = CLK3 (Homo sapiens (Human), UniProt P49761); experiment: KinaseProfiler off-target kinase profiling; format: biochemical; conditions: 10 μM, ATP near Km
Sequence of CLK3 (P49761 whole entry): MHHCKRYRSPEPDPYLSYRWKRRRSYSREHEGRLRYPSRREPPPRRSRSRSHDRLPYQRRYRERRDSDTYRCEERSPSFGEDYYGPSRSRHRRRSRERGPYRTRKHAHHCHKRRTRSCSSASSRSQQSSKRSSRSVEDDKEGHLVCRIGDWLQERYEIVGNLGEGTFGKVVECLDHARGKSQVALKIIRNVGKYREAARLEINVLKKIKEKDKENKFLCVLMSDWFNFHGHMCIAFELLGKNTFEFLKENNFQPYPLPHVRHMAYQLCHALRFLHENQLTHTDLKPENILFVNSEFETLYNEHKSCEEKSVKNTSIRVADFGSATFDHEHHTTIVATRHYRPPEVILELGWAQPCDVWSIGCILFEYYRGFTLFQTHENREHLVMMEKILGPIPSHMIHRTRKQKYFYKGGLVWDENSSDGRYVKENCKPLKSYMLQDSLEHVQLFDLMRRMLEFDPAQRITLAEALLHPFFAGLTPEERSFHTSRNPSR
Method: as §1

MuSK = MuSK (Homo sapiens (Human), UniProt O15146); experiment: KinaseProfiler off-target kinase profiling; format: biochemical; conditions: 10 μM, ATP near Km
Sequence of MuSK (O15146 24-869): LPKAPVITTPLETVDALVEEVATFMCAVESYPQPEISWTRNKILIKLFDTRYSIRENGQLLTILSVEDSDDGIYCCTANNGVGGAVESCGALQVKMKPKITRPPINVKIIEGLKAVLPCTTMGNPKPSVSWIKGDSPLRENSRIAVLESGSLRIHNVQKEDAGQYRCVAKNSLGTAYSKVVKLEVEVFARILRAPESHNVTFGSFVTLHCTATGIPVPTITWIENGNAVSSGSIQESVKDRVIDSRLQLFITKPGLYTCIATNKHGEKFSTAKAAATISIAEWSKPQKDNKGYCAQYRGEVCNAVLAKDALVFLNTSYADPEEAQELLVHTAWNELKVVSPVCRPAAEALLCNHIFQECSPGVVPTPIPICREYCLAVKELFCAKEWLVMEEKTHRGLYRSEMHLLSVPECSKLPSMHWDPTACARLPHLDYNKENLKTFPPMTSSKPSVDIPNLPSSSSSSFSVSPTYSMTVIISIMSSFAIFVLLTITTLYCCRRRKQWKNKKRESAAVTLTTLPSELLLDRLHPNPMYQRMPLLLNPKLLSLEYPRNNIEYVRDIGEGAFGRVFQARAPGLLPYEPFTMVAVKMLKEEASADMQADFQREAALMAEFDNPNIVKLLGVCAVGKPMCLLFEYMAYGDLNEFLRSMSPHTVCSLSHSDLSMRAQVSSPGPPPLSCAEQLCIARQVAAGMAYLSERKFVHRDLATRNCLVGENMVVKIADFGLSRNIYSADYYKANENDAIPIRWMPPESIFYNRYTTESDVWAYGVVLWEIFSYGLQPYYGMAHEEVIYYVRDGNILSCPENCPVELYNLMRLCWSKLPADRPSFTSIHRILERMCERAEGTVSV
Method: as §1

MAPKAP-K3 = MAPKAP-K3 (Homo sapiens (Human), UniProt Q16644); experiment: KinaseProfiler off-target kinase profiling; format: biochemical; conditions: 10 μM, ATP near Km
Method: as §1

DYRK2 = DYRK2 (Homo sapiens (Human), UniProt Q92630); experiment: KinaseProfiler off-target kinase profiling; format: biochemical; conditions: 10 μM, ATP near Km
Method: as §1

Rsk2 = Rsk2 (Homo sapiens (Human), UniProt P51812); experiment: KinaseProfiler off-target kinase profiling; format: biochemical; conditions: 10 μM, ATP near Km
Method: as §1

JNK2alpha2 = JNK2alpha2 (Homo sapiens (Human), UniProt P45984); experiment: KinaseProfiler off-target kinase profiling; format: biochemical; conditions: 10 μM, ATP near Km
Method: as §1

Rsk1 = Rsk1 (Homo sapiens (Human), UniProt Q15418); experiment: KinaseProfiler off-target kinase profiling; format: biochemical; conditions: 10 μM, ATP near Km
Method: as §1

Flt1 = Flt1 (Homo sapiens (Human), UniProt P17948); experiment: KinaseProfiler off-target kinase profiling; format: biochemical; conditions: 10 μM, ATP near Km
Method: as §1

PKCbetaII = PKCbetaII (Homo sapiens (Human), UniProt P05771); experiment: KinaseProfiler off-target kinase profiling; format: biochemical; conditions: 10 μM, ATP near Km
Sequence of PKCbetaII (P05771 other isoform, or with tags, fused parts or gaps): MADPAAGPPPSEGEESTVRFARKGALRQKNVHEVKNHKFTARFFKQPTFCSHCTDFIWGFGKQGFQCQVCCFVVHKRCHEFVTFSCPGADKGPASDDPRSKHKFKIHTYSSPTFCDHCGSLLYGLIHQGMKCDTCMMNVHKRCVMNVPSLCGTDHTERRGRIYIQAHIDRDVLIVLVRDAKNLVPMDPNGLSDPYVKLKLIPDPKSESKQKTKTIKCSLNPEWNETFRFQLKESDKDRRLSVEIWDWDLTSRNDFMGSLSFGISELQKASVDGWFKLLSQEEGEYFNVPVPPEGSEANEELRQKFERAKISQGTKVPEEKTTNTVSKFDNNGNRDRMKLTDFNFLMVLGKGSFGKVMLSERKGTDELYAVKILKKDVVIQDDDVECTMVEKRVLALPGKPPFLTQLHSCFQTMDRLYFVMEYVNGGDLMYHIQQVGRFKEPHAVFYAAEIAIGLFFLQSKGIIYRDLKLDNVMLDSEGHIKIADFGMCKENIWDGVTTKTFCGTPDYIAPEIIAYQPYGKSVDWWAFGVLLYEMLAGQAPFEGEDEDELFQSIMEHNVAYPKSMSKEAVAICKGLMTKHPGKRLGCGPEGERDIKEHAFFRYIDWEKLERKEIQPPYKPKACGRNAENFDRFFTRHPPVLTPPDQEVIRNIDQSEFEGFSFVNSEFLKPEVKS
Method: as §1

Haspin = Haspin (Homo sapiens (Human), UniProt Q8TF76); experiment: KinaseProfiler off-target kinase profiling; format: biochemical; conditions: 10 μM, ATP near Km
Method: as §1

MKK4_m = MKK4_m (Mus musculus (Mouse), UniProt P47809); experiment: KinaseProfiler off-target kinase profiling; format: biochemical; conditions: 10 μM, ATP near Km
Sequence of MKK4_m (P47809 whole entry): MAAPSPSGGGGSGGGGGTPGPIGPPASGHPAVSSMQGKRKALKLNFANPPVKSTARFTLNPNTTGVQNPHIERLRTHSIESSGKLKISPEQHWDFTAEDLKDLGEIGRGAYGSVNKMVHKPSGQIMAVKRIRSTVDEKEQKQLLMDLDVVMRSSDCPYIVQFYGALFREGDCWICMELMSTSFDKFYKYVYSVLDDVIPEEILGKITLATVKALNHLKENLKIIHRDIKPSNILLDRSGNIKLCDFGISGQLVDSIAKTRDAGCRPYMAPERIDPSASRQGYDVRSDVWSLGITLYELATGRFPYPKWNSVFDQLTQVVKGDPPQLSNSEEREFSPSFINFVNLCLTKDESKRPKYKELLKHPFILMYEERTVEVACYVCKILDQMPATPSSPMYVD
Method: as §1

ROCK-II = ROCK-II (Homo sapiens (Human), UniProt O75116); experiment: KinaseProfiler off-target kinase profiling; format: biochemical; conditions: 10 μM, ATP near Km
Method: as §1

Ros = Ros (Homo sapiens (Human), UniProt P08922); experiment: KinaseProfiler off-target kinase profiling; format: biochemical; conditions: 10 μM, ATP near Km
Method: as §1

Syk = Syk (Homo sapiens (Human), UniProt P43405); experiment: KinaseProfiler off-target kinase profiling; format: biochemical; conditions: 10 μM, ATP near Km
Method: as §1

Lck = Lck (Homo sapiens (Human), UniProt P06239); experiment: KinaseProfiler off-target kinase profiling; format: biochemical; conditions: 10 μM, ATP near Km
Method: as §1

DAPK1 = DAPK1 (Homo sapiens (Human), UniProt P53355); experiment: KinaseProfiler off-target kinase profiling; format: biochemical; conditions: 10 μM, ATP near Km
Method: as §1

CK2alpha2 = CK2alpha2 (Homo sapiens (Human), UniProt P19784); experiment: KinaseProfiler off-target kinase profiling; format: biochemical; conditions: 10 μM, ATP near Km
Method: as §1

PrKX = PrKX (Homo sapiens (Human), UniProt P51817); experiment: KinaseProfiler off-target kinase profiling; format: biochemical; conditions: 10 μM, ATP near Km
Method: as §1

| Structure (SMILES) | Avg. POC (Yes) [POC] | Avg. POC (FAK2) [POC] | Avg. POC (SRC) [POC] | Avg. POC (p38alpha) [POC] | Avg. POC (MKK7beta) [POC] | Avg. POC (Lyn) [POC] | Avg. POC (c-RAF) [POC] | Avg. POC (mTOR) [POC] | Avg. POC (ALK4) [POC] | Avg. POC (TAO2) [POC] | Avg. POC (NEK6) [POC] | Avg. POC (PRK2) [POC] | Avg. POC (CAMK4) [POC] | Avg. POC (ULK3) [POC] | Avg. POC (CLK3) [POC] | Avg. POC (MuSK) [POC] | Avg. POC (MAPKAP-K3) [POC] | Avg. POC (DYRK2) [POC] | Avg. POC (Rsk2) [POC] | Avg. POC (JNK2alpha2) [POC] | also measured |
| --- | --- | --- | --- | --- | --- | --- | --- | --- | --- | --- | --- | --- | --- | --- | --- | --- | --- | --- | --- | --- | --- |
| Cc1c(-c2cnn(C)c2)nn(-c2ccccc2)c1NC(=O)N[C@H]1CCCc2ccccc21 [Example 2, (S)-1-(1′,4-dimethyl-1-phenyl-1H,1′H-3,4′-bipyrazol-5-yl)-3-(1,2,3,4-tetrahydronaphthalen-1-yl)urea] | 132.5 | 120 | 99.5 | 102.5 | 129.5 | 115 | 103.5 | 116 | 98.5 | 110 | 125.5 | 128 | 137.5 | 105 | 108 | 103.5 | 128 | 98 | 137 | 103.5 | IC50 [1]: < 100 nM; Avg. POC (Rsk1): 117 POC; Avg. POC (Flt1): 105.5 POC; Avg. POC (PKCbetaII): 95.5 POC; Avg. POC (Haspin): 92.5 POC; Avg. POC (MKK4_m): 102.5 POC; Avg. POC (ROCK-II): 108 POC; Avg. POC (Ros): 106.5 POC; Avg. POC (Syk): 115 POC; Avg. POC (Lck): 97.5 POC; Avg. POC (DAPK1): 108.5 POC; Avg. POC (CK2alpha2): 125 POC; Avg. POC (PrKX): 152 POC |
| Cc1c(-c2cnn(C)c2)nn(-c2ccccc2)c1NC(=O)NC1CCOc2cc(F)ccc21 (centres unmarked) [Example 12, 1-(1′,4-dimethyl-1-phenyl-1H,1′H-[3,4′-bipyrazol]-5-yl)-3-(7-fluorochroman-4-yl)urea] | 119.5 | 111 | 97 | 110 | 122.5 | 104.5 | 96 | 104.5 | 101 | 121 | 121 | 97.5 | 113.5 | 89.5 | 100 | 98.5 | 112 | 97.5 | 103 | 96 | IC50 [1]: < 100 nM; Avg. POC (Rsk1): 107.5 POC; Avg. POC (Flt1): 93 POC; Avg. POC (PKCbetaII): 100 POC; Avg. POC (Haspin): 97 POC; Avg. POC (MKK4_m): 144.5 POC; Avg. POC (ROCK-II): 99 POC; Avg. POC (Ros): 97.5 POC; Avg. POC (Syk): 108.5 POC; Avg. POC (Lck): 92 POC; Avg. POC (DAPK1): 136 POC; Avg. POC (CK2alpha2): 107.5 POC; Avg. POC (PrKX): 118.5 POC |
| Cc1c(-c2ccc(=O)n(C)c2)nn(-c2ccccc2)c1NC(=O)NC1CN(CC(F)(F)F)Cc2ccccc21 (centres unmarked) [Example 26, 1-(4-methyl-3-(1-methyl-6-oxo-1,6-dihydropyridin-3-yl)-1-phenyl-1H-pyrazol-5-yl)-3-(2-(2,2,2-trifluoroethyl)-1,2,3,4-tetrahydroisoquinolin-4-yl)urea] | 117.5 | 104.5 | 104.5 | 104.5 | 144.5 | 110.5 | 106.5 | 102.5 | 102.5 | 111 | 123.5 | 110.5 | 121 | 92.5 | 106 | 99.5 | 108.5 | 103 | 105.5 | 104 | Avg. POC (Rsk1): 121 POC; Avg. POC (Flt1): 104 POC; Avg. POC (PKCbetaII): 99 POC; Avg. POC (Haspin): 92 POC; Avg. POC (MKK4_m): 99.5 POC; Avg. POC (ROCK-II): 110 POC; Avg. POC (Ros): 106.5 POC; Avg. POC (Syk): 93.5 POC; Avg. POC (Lck): 96.5 POC; Avg. POC (DAPK1): 135 POC; Avg. POC (CK2alpha2): 114 POC; Avg. POC (PrKX): 109 POC |
| COCc1ccc2c(c1)C(NC(=O)Nc1c(C)c(-c3cnn(C)c3)nn1-c1ccccc1)COC2 (centres unmarked) [Example 32, 1-(1′,4-dimethyl-1-phenyl-1H,1′H-[3,4′-bipyrazol]-5-yl)-3-(6-(methoxymethyl)isochroman-4-yl)urea] | 114.5 | 101.5 | 108.5 | 96.5 | 138.5 | 106.5 | 101.5 | 94.5 | 100.5 | 104 | 123 | 99.5 | 102 | 92 | 109 | 104.5 | 105 | 97.5 | 92.5 | 102.5 | IC50 [1]: < 100 nM; Avg. POC (Rsk1): 111.5 POC; Avg. POC (Flt1): 103 POC; Avg. POC (PKCbetaII): 100.5 POC; Avg. POC (Haspin): 94 POC; Avg. POC (MKK4_m): 133 POC; Avg. POC (ROCK-II): 106 POC; Avg. POC (Ros): 97.5 POC; Avg. POC (Syk): 115 POC; Avg. POC (Lck): 104.5 POC; Avg. POC (DAPK1): 131 POC; Avg. POC (CK2alpha2): 104 POC; Avg. POC (PrKX): 110 POC |
